Experimental data taken from PMC5666424, “Marine-Derived 2-Aminoimidazolone Alkaloids. Leucettamine B-Related Polyandrocarpamines Inhibit Mammalian and Protozoan DYRK & CLK Kinases” (Marine Drugs, 2017).
Like-named read-outs stand apart in the source and are kept apart here.

Experiments:
Assay in all cases: Protein kinase assay
CDK9/cyclin T = CDK9/cyclin T (Homo sapiens, UniProt P50750); details: IC50 CDK9/cyclin T, 15 μmol/L ATP
LdDYRK3 = LdDYRK3 (Leishmania donovani, UniProt E9BS59); format: biochemical
Experimental: (§1) The parasitic kinase genes (Supplementary Data, Table S3) were optimized for expression in E. coli, synthesized, and cloned in pGEX-6P-1 (GE Healthcare, Sigma-Aldrich, St. Quentin Fallavier, France) with the type II restriction enzymes BamHI and XhoI for glutathione S-transferase (GST) fusion at the N-terminus (GenScript). Plasmids were transformed into chemically competent E. coli BL21(DE3), which were grown overnight at 37 °C in 2 × YT medium containing 100 μg/mL ampicillin. These cultures were used to inoculate 1 L volumes of 2 × YT medium (containing 100 μg/mL ampicillin) in 5 L flasks. The cultures were allowed to grow at 37 °C before the temperature was decreased to 18 °C. At an optical density at 600 nm (OD600) of about 1.0, protein expression was induced overnight at 18 °C with 0.1 mM isopropyl β-D-1-thiogalactopyranoside (IPTG). The bacteria were harvested by centrifugation and were frozen at −20 °C.
(§2) Cells were resuspended in a lysis buffer (PBS pH 7.4, 1% NP40, 1 mM DTT, 1 mM EDTA, 1 mM PMSF) in the presence of protease inhibitor cocktail (Roche), and lysozyme was added to 1 mg/mL and incubated 1 h at 4 °C with gentle agitation. Cells were then sonicated on ice before 6 mM MgCl2 and 25 U/mL benzonase (Novagen, Merck Millipore, Fontenay sous Bois, France) were added to degrade nucleic acids and decrease sample viscosity. After centrifugation at 4 °C, the soluble fraction was collected and proteins were bound to Glutathione sepharose 4B beads (GE Healthcare). Beads were washed three times with lysis buffer and once with modified buffer C (25 mM MOPS pH 7.0, 60 mM β-glycerophosphate, 15 mM p-nitrophenylphosphate, 15 mM EGTA, 15 mM MgCl2, 2 mM DTT, 1 mM sodium vanadate). Proteins were eluted with elution buffer (buffer C containing 30 mM reduced glutathione, 15% glycerol, and pH adjusted to 8.5).

CpLAMMER = CpLAMMER (Cryptosporidium parvum, UniProt A3FQG5); format: biochemical
Chain of CpLAMMER (A3FQG5 entry or part of it): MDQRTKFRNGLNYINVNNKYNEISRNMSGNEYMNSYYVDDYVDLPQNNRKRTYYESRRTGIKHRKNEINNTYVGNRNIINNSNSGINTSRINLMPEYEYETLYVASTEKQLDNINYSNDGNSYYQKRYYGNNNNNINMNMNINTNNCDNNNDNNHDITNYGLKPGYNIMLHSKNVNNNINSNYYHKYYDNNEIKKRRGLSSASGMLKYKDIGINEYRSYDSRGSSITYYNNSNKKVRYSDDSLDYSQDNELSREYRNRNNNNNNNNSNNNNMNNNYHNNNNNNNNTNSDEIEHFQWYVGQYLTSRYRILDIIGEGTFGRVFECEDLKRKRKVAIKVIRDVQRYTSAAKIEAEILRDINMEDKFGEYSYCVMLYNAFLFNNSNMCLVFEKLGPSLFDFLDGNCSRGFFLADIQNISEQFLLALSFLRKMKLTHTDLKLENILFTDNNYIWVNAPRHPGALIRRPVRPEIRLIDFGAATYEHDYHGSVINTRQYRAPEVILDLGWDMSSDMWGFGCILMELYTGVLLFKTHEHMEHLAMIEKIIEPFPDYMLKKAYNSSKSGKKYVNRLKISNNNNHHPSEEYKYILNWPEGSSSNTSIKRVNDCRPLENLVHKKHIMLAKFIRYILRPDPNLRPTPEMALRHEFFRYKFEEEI
Experimental: as §1, §2

LmDYRK2 = LmDYRK2 (Leishmania major, UniProt Q4Q405); format: biochemical
Chain of LmDYRK2 (Q4Q405 entry or part of it): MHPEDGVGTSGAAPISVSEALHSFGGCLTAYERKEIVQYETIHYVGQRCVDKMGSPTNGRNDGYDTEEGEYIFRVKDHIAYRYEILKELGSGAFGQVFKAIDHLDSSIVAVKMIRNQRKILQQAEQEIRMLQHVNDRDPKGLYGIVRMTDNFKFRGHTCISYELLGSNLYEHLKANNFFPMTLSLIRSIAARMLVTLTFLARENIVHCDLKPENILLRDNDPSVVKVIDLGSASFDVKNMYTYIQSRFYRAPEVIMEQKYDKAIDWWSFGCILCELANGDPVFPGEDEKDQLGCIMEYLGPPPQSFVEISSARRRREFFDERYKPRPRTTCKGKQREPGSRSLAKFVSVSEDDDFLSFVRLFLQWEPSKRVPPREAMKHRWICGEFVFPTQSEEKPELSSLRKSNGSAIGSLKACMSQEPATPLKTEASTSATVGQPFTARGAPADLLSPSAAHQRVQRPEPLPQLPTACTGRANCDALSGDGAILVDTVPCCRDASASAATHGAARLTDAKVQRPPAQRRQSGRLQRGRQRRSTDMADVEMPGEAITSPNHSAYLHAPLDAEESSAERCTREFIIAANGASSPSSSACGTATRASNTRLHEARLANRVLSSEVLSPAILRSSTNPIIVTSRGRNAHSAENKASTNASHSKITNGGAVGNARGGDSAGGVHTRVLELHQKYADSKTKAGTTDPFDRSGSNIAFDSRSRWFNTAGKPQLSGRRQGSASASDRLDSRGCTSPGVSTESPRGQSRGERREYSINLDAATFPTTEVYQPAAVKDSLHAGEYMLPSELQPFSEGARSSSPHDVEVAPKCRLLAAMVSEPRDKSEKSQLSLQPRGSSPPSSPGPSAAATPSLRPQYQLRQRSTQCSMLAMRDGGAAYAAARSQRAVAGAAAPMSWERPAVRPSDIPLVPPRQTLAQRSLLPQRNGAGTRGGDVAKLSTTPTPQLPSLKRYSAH
Experimental: as §1, §2

TbCLK1 = TbCLK1 (Trypanosoma brucei brucei, UniProt Q382U0); format: biochemical
Experimental: as §1, §2

TcCLK1 = TcCLK1 (Trypanosoma cruzi, UniProt Q4E3Z1); format: biochemical
Experimental: as §1, §2

PfCLK1 = PfCLK1 (Plasmodium falciparum, UniProt Q8IL19); format: biochemical
Experimental: as §1, §2

PfGSK-3 = molecular target: T1, PfGSK-3 (Plasmodium falciparum, UniProt O77344); format: biochemical
T1 sequence (O77344 1-440): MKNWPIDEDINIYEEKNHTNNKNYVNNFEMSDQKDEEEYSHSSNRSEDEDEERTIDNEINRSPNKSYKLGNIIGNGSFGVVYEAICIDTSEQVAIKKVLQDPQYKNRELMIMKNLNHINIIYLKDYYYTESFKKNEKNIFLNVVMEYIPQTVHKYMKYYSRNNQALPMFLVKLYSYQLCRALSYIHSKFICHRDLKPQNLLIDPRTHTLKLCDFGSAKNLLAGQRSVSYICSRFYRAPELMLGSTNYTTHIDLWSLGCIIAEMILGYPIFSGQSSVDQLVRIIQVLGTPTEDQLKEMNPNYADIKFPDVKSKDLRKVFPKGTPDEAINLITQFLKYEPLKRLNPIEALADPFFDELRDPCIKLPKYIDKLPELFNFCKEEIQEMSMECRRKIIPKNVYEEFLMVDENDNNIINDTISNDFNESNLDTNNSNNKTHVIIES
Experimental: as §1, §2

LmCLK = LmCLK (Leishmania major, UniProt Q4QHY4); format: biochemical
Experimental: as §1, §2

GlCLK = GlCLK (Giardia intestinalis, UniProt A8BBY0); format: biochemical
Experimental: as §1, §2

LdDYRK4 = LdDYRK4 (Leishmania donovani, UniProt A0A3Q8IC55); format: biochemical
Chain of LdDYRK4 (A0A3Q8IC55 entry or part of it): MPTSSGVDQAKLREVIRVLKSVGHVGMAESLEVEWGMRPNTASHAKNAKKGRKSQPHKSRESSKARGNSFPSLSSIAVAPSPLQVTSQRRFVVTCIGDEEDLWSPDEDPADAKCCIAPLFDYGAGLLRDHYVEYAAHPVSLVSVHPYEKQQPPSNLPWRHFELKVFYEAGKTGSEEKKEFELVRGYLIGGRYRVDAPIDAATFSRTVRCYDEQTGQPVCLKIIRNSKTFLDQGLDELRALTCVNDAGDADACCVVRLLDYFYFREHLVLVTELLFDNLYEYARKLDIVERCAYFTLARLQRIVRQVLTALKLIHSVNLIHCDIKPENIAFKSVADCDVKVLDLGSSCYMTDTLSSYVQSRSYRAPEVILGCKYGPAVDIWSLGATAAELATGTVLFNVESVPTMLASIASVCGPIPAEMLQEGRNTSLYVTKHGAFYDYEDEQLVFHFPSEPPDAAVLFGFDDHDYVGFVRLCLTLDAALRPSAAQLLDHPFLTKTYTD
Experimental: as §1, §2

LdDYRK1B = LdDYRK1B (Leishmania donovani, UniProt E9BC59); format: biochemical; details: 15 μmol/L ATP
Chain of LdDYRK1B (E9BC59 1-745): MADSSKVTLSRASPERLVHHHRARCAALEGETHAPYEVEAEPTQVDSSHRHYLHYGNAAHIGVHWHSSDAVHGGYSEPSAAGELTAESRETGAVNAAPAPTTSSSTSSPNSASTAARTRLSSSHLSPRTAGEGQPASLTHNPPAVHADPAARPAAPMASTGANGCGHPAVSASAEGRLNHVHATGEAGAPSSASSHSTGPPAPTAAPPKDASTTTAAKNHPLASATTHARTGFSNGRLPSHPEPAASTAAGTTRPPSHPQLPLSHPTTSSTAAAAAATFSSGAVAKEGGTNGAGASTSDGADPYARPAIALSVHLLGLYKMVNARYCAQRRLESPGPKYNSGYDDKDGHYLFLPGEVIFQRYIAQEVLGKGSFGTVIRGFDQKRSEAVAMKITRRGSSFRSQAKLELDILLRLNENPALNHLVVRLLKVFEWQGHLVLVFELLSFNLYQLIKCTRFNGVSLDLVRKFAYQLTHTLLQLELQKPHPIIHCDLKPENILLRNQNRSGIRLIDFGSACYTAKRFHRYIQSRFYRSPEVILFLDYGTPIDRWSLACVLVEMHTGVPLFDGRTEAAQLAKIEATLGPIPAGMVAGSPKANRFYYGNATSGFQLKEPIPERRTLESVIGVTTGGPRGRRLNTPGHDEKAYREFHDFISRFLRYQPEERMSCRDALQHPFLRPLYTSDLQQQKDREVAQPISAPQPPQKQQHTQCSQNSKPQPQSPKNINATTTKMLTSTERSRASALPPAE
Experimental: as §1, §2

DYRK1A = DYRK1A (Homo sapiens, UniProt Q13627); format: biochemical; details: 15 μmol/L ATP
CDK2/cyclin A = molecular target: T2, CDK2/cyclin A (Homo sapiens, UniProt P24941); format: biochemical
T2 construct: made in house

CLK1 = CLK1 (Mus musculus, UniProt P22518); details: IC50 CLK1, 15 μmol/L ATP
CLK4 = CLK4 (Mus musculus, UniProt O35493); details: IC50 CLK4, 15 μmol/L ATP
Chain of CLK4 (O35493 whole entry): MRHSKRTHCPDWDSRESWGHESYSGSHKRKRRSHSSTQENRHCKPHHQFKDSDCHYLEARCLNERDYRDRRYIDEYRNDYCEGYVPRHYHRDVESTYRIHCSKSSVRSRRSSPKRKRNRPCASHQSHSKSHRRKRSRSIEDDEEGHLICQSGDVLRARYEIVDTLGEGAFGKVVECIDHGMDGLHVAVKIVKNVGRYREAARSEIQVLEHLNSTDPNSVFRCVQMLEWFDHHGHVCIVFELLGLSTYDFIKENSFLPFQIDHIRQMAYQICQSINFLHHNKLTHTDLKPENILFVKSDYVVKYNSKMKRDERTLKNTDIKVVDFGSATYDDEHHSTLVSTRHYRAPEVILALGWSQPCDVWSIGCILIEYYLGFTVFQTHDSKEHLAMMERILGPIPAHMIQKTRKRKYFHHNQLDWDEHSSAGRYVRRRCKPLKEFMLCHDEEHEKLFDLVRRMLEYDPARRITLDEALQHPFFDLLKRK

DYRK1B = DYRK1B (Homo sapiens, UniProt Q9Y463); format: biochemical; details: 15 μmol/L ATP
GSK-3α/β = format: biochemical, porcine; details: 15 μmol/L ATP
TgCLK = TgCLK (Toxoplasma gondii, UniProt V4ZJD6); format: biochemical
CLK3 = CLK3 (Mus musculus, UniProt O35492); details: IC50 CLK3, 15 μmol/L ATP
CDK5/p25 = molecular target: T3, CDK5/p25 (Homo sapiens, UniProt Q00535); format: biochemical
T3 construct: made in house
T3 sequence (Q00535 whole entry): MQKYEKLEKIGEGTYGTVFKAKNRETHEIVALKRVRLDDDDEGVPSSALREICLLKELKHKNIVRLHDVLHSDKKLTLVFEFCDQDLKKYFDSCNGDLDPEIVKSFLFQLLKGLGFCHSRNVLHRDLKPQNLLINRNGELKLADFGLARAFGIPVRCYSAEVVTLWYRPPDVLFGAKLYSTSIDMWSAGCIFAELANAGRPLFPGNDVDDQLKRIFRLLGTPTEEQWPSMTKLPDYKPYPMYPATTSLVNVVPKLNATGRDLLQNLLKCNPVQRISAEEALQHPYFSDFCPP
T3 sequence (Q15078 99-307 partner limits assumed): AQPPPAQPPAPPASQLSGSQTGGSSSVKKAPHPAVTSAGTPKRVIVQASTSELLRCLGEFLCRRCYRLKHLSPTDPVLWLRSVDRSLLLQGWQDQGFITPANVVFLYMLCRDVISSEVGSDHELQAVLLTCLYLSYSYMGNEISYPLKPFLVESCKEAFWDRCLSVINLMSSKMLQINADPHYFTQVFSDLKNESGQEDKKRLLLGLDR

[1] = 15 μmol/L ATP, read-out: IC50 LdDYRK3
[2] = 15 μmol/L ATP, read-out: IC50 CpLAMMER
[3] = 15 μmol/L ATP, read-out: IC50 LmDYRK2
[4] = 15 μmol/L ATP, read-out: IC50 TbCLK1
[5] = 15 μmol/L ATP, read-out: IC50 TcCLK1
[6] = 15 μmol/L ATP, read-out: IC50 PfCLK1
[7] = 15 μmol/L ATP, read-out: IC50 PfGSK-3
[8] = 15 μmol/L ATP, read-out: IC50 LmCLK
[9] = 15 μmol/L ATP, read-out: IC50 GlCLK
[10] = 15 μmol/L ATP, read-out: IC50 LdDYRK4
[11] = 15 μmol/L ATP, read-out: IC50 CDK2/cyclin A
[12] = 15 μmol/L ATP; read-out: IC50 TgCLK
[13] = 15 μmol/L ATP, read-out: IC50 CDK5/p25

Chain of CDK9/cyclin T (P50750 whole entry): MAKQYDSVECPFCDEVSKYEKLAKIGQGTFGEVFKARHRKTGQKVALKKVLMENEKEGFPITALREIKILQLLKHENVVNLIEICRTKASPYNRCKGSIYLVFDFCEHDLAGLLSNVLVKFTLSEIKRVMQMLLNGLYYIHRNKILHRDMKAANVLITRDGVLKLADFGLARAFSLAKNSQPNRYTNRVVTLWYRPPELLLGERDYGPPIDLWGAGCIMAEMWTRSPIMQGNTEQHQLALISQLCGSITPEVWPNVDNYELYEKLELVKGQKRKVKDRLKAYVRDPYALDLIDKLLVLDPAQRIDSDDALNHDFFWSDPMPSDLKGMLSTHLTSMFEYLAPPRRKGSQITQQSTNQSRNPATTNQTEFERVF
Chain of CDK9/cyclin T (O60563 whole entry partner): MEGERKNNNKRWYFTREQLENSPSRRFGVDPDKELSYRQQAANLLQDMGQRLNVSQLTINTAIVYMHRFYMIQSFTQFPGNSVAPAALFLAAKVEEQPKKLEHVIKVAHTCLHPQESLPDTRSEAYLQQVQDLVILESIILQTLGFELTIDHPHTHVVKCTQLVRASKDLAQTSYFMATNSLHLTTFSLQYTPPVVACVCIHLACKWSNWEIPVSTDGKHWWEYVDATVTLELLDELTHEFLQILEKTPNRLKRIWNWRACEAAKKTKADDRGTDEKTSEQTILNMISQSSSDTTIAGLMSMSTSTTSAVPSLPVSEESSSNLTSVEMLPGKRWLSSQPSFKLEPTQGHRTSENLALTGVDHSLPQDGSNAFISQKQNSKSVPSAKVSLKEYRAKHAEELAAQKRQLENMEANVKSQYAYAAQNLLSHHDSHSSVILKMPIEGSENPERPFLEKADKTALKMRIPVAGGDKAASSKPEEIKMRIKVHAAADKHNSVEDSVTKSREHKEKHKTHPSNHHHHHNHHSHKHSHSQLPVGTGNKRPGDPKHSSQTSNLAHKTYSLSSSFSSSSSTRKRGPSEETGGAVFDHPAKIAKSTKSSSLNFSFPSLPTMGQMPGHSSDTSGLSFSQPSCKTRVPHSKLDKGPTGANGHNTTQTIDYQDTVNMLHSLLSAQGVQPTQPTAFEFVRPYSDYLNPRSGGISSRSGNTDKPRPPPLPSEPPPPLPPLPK

IC50 (CDK9/cyclin T) | IC50 (LdDYRK3; [1]) | IC50 (CpLAMMER; [2]) | IC50 (LmDYRK2; [3]) | IC50 (TbCLK1; [4]) | IC50 (TcCLK1; [5]) | IC50 (PfCLK1; [6]) | IC50 (PfGSK-3; [7]) | IC50 (LmCLK; [8]) | IC50 (GlCLK; [9]) | IC50 (LdDYRK4; [10]) | IC50 (LdDYRK1B) | IC50 (DYRK1A) | IC50 (CDK2/cyclin A; [11]) | IC50 (CLK1) | IC50 (CLK4) | IC50 (DYRK1B) | IC50 (GSK-3α/β) | IC50 (CLK3) | Structure (SMILES) | IC50 (TgCLK; [12]) | also measured
0.011 µM | 0.021 µM | 0.016 µM | 0.38 µM | 0.53 µM | 0.51 µM | 0.011 µM | 0.0041 µM | 0.4 µM | 0.012 µM | > 10 µM | 0.042 µM | 0.0033 µM | 0.011 µM | 0.003 µM | 0.0029 µM | 0.0032 µM | 0.0032 µM | 0.0053 µM | NC1=NC(=O)/C(=C2\CCNC(=O)c3[nH]c(Br)cc32)N1 [Hymenialdisine, reference compound] | 0.041 µM | IC50 (CDK5/p25): 0.0061 µM
> 10 µM | > 10 µM | > 10 µM | > 10 µM | > 10 µM | > 10 µM | > 10 µM | > 10 µM | > 10 µM | > 10 µM | > 10 µM | > 10 µM | 7.8 µM | > 10 µM | 6.9 µM | 3.9 µM | > 10 µM | > 10 µM | > 10 µM | CN1C(=O)N=C(Nc2nc(Cc3ccc4c(c3)OCO4)cn2C)C1=O [Clathridine] | > 10 µM | IC50 (CDK5/p25; [13]): > 10 µM
> 10 µM | > 10 µM | > 10 µM | > 10 µM | > 10 µM | > 10 µM | > 10 µM | > 10 µM | > 10 µM | > 10 µM | > 10 µM | > 10 µM | > 10 µM | > 10 µM | > 10 µM | > 10 µM | > 10 µM | > 10 µM | > 10 µM | NC1=N/C(=C\CCNC(=O)c2cc(Br)c(Br)[nH]2)C(=O)N1 [Dispacamide] | > 10 µM | IC50 (CDK5/p25; [13]): > 10 µM
> 10 µM | 7.9 µM | > 10 µM | > 10 µM | > 10 µM | > 10 µM | > 10 µM | > 10 µM | > 10 µM | > 10 µM | > 10 µM | > 10 µM | 5.2 µM | > 10 µM | 7.2 µM | 3.5 µM | 5.6 µM | > 10 µM | > 10 µM | CN1C(=N)N=C(Nc2nc(Cc3ccc4c(c3)OCO4)cn2C)C1=O [Clathridimine] | > 10 µM | IC50 (CDK5/p25; [13]): > 10 µM
5.2 µM | > 10 µM | 0.2 µM | > 10 µM | > 10 µM | > 10 µM | 3.1 µM | > 10 µM | > 10 µM | 2.2 µM | > 10 µM | > 10 µM | 0.47 µM | > 10 µM | – | 0.82 µM | 1.2 µM | > 10 µM | 8.6 µM | NC1=N/C(=C\c2ccc(O)c(O)c2)C(=O)N1 [Polyandrocarpamine B] | > 10 µM | IC50 (CDK5/p25; [13]): > 10 µM
0.2 µM | 0.3 µM | 0.13 µM | 9 µM | 0.71 µM | 1.1 µM | 0.085 µM | 0.038 µM | 5.2 µM | 0.12 µM | > 10 µM | 0.5 µM | 0.78 µM | 0.068 µM | 0.022 µM | 0.0036 µM | 0.0058 µM | 0.044 µM | 0.049 µM | NC1=NC(=O)/C(=C2\CCNC(=O)c3[nH]cc(Br)c32)N1 [Spongiacidin B] | 0.48 µM | IC50 (CDK5/p25; [13]): 0.042 µM
> 10 µM | > 10 µM | > 10 µM | > 10 µM | > 10 µM | > 10 µM | > 10 µM | > 10 µM | > 10 µM | > 10 µM | > 10 µM | > 10 µM | > 10 µM | > 10 µM | > 10 µM | > 10 µM | > 10 µM | > 10 µM | > 10 µM | CN1C(=N)N(C)/C(=C\c2c[nH]c3ccccc23)C1=O [Aplysinopsine] | > 10 µM | IC50 (CDK5/p25; [13]): > 10 µM

Structure (SMILES) | IC50 (CDK9/cyclin T) | IC50 (LdDYRK3; [1]) | IC50 (CpLAMMER; [2]) | IC50 (LmDYRK2; [3]) | IC50 (TbCLK1; [4]) | IC50 (TcCLK1; [5]) | IC50 (PfCLK1; [6]) | IC50 (PfGSK-3; [7]) | IC50 (LmCLK; [8]) | IC50 (GlCLK; [9]) | IC50 (LdDYRK4; [10]) | IC50 (LdDYRK1B) | IC50 (DYRK1A) | IC50 (CDK2/cyclin A; [11]) | IC50 (CLK1) | IC50 (CLK4) | IC50 (DYRK1B) | IC50 (GSK-3α/β) | IC50 (CLK3) | IC50 (TgCLK; [12]) | also measured
CN1C(=O)/C(=C/c2ccc3c(c2)OCO3)N=C1N [Leucettamine B] | > 10 µM | – | – | – | – | – | – | – | – | – | – | 6.9 µM | – | – | 0.1 µM | 0.12 µM | – | 7.3 µM | 9.7 µM | – | IC50 (LdDYRK3): > 10 µM; IC50 (CpLAMMER): 1.8 µM; IC50 (LmDYRK2): 4.2 µM; IC50 (TbCLK1): > 10 µM; IC50 (TcCLK1): > 10 µM; IC50 (PfCLK1): 0.79 µM; IC50 (PfGSK-3): > 10 µM; IC50 (LmCLK): > 10 µM; IC50 (GlCLK): 3.1 µM; IC50 (LdDYRK4): > 10 µM; IC50 (CDK2/cyclin A): > 10 µM; IC50 (TgCLK; read-out: IC50 TgCLK; 15 μmol/L ATP): 4.1 µM
COc1cc(/C=C2\N=C(N)NC2=O)ccc1O [Polyandrocarpamine A] | 0.93 µM | > 10 µM | 0.17 µM | 5.9 µM | > 10 µM | > 10 µM | 0.65 µM | > 10 µM | > 10 µM | 0.95 µM | > 10 µM | 1.1 µM | 0.27 µM | > 10 µM | 1 µM | 0.32 µM | 0.43 µM | – | 2.6 µM | > 10 µM | IC50 (CDK5/p25; [13]): > 10 µM
